In patent US11696913B2, “Prolonged ectoparasite-controlling agent for animal” (MITSUI CHEMICALS AGRO, INC., priority 2017, dated 2023):

Key:
[1] = tested on: Amblyomma americanum; experiment: In vitro contact test with hard ticks (Amblyomma americanum nymphs); settings: read-out: acaricidal activity; for pest or weed control at 1 µg/cm2, 1 µg/cm2: dose 1 μg/cm^2, 48 h; for pest or weed control at 0.2 µg/cm2, 0.2 µg/cm2: dose 0.2 μg/cm^2, 48 h
Method: (§1) In Vitro Contact Tests with Adult Hard Ticks
(§2) In vitro contact tests with ticks were conducted with adult males and females of Rhipicephalus sanguineus, Ixodes ricinus, or Dermacentor variabilis, or nymphs of Amblyomma americanum.
(§3) For the coating of the test vials, the test substance was dissolved and diluted in acetone p.a. to the desired concentration. The solution was then homogeneously applied to the inner wall and base of a glass vial by turning and rocking on an orbital shaker until complete evaporation of the solvent. For example, with a 900 ppm solution of test substance, an area-based dose of 5 μg/cm^2 was achieved.
(§4) After the solvent was completely evaporated, 5-10 adult ticks were put in each coated test vial, which was then sealed with a perforated plastic lid and incubated in a horizontal position in the dark at room temperature and ambient humidity (Rhipicephalus sanguineus) or in a climate-controlled cabinet (Ixodes ricinus, Dermacentor variabilis, Amblyomma americanum [21° C., 85% rel. hum.]). Acaricidal activity against the respective tick species was determined after 48 h. For this, ticks were collected to the base of the test vial by gentle knocking, and test vials were then incubated on a hotplate at 45-50° C. for no longer than 5 min. Ticks which remained motionless on the base of the test vial or moved uncoordinated without deliberately climbing up to avoid the heat were considered dead or moribund, respectively.
(§5) A substance was judged to have good acaricidal activity against the respective tick species when at least 80% of ticks were found dead or moribund at a dose of the substance of g/cm^2. An acaricidal activity of 100% means all ticks were dead or moribund. An acaricidal activity of 0% means none of the ticks was found dead or moribund.

[2] = tested on: Rhipicephalus (Boophilus) microplus; experiment: In vitro injection test with Rhipicephalus (Boophilus) microplus (BOOPMI Inj); settings: 168 h, laid fertile eggs after 7 days, read-out: acaricidal activity; for pest or weed control at 0.0008 mg: dose 0.8 μg/animal injected; for pest or weed control at 0.00016 mg: dose 0.16 μg/animal injected; for pest or weed control at 32 ng: dose 0.032 μg/animal injected
Method: In Vitro Injection Test with Rhipicephalus (Boophilus) Microplus (BOOPMI Inj)
To produce an appropriate mixture for injection, the test substance was dissolved and diluted in dimethyl sulphoxide to the desired concentration. 1 μl of the test mixture was injected into the abdomen of each of 5 engorged adult female cattle ticks (Rhipicephalus (Boophilus) microplus). The ticks were transferred into petri dishes and maintained in a climate-controlled room [28° C., 85% rel. hum.].
Acaricidal activity against cattle ticks was assessed after 7 days by assessment of laid fertile eggs. […] An acaricidal activity of 100% means that none of the ticks laid eggs or laid eggs were infertile; 0% means that the ticks laid eggs, and all the eggs were fertile.

[3] = tested on: Ctenocephalides felis; experiment: In vitro contact test with fleas; settings: read-out: insecticidal activity; for pest or weed control at 0.2 µg/cm2, 0.2 µg/cm2: dose 0.2 μg/cm^2, dead or moribund fleas after 48 h; for pest or weed control at 1 µg/cm2, 1 µg/cm2: dose 1 μg/cm^2, dead or moribund fleas after 48 h
Method: In Vitro Contact Tests with Fleas
In vitro contact tests with fleas were conducted with adult male and female cat fleas (Ctenocephalides felis).
as §3, with “To coat” for “For the coating of”, “tubes,” for “vials,”, “tube” for “vial”
Upon complete evaporation of the solvent, 5-10 adult cat fleas (Ctenocephalides felis) were added to each coated tube, which was then sealed with a perforated plastic lid and incubated in a horizontal position at room temperature and ambient humidity. After 48 h, insecticidal activity against fleas was determined. For this, fleas were collected to the base of the tube by knocking the tube, and the tube was allowed to stand upright. Fleas which remained motionless at the base or moved in an uncoordinated manner were considered dead or moribund, respectively.
A substance was judged to have good insecticidal activity against Ctenocephalides felis when at least 80% of the fleas were found dead or moribund at a dose of the substance of μg/cm^2. 100% insecticidal activity means that all the fleas were found dead or moribund. 0% insecticidal activity means that no fleas were found dead or moribund.

[4] = tested on: Rhipicephalus sanguineus; experiment: In vitro contact test with adult hard ticks (Rhipicephalus sanguineus); settings: read-out: acaricidal activity; for pest or weed control at 0.2 µg/cm2, 0.2 µg/cm2: dose 0.2 μg/cm^2, 48 h; for pest or weed control at 1 µg/cm2, 1 µg/cm2: dose 1 μg/cm^2, 48 h; for pest or weed control at 0.04 µg/cm2, 0.04 µg/cm2: dose 0.04 μg/cm^2, 48 h
Method: as §1, §2, §3, §4, §5

[5] = tested on: Ctenocephalides felis; experiment: Ctenocephalides felis in-vitro feeding test with fleas (CTECFE oral); settings: 48 hours, read-out: insecticidal feeding activity; for pest or weed control at 4 ppm: dose 4 ppm in citrated cattle blood; for pest or weed control at 0.8 ppm: dose 0.8 ppm in citrated cattle blood; for pest or weed control at 0.16 ppm: dose 0.16 ppm in citrated cattle blood
Method: Ctenocephalides felis In-Vitro Feeding Test with Fleas (CTECFE Oral)
To prepare a test blood mixture for feeding fleas, the test substance was dissolved in dimethyl sulphoxide and diluted with citrated cattle blood to the desired concentration.
To assemble the test set-up, about 20 unfed adult male and female cat fleas
(Ctenocephalides felis) were placed in a chamber which was closed at the top and bottom with gauze. A metal cylinder was sealed at one end with parafilm membrane, placed with the sealed base onto the chamber, and filled with the test blood mixture, which could be imbibed by the fleas through the parafilm membrane. The assembled test set-up was maintained at about 37° C. After 48 hours, the insecticidal feeding activity against fleas was determined. 100% means that all of the fleas were killed; 0% means that none of the fleas was killed.

[6] = tested on: Dermacentor variabilis; experiment: In vitro contact test with adult hard ticks (Dermacentor variabilis); settings: read-out: acaricidal activity; for pest or weed control at 1 µg/cm2, 1 µg/cm2: dose 1 μg/cm^2, 48 h
Method: as §1, §2, §3, §4, §5

| SMILES | pest or weed control at 1 µg/cm2, 1 µg/cm2 [1] | pest or weed control at 0.0008 mg [2] | pest or weed control at 0.2 µg/cm2, 0.2 µg/cm2 [3] | pest or weed control at 1 µg/cm2, 1 µg/cm2 [3] | pest or weed control at 1 µg/cm2, 1 µg/cm2 [4] | pest or weed control at 4 ppm [5] | pest or weed control at 0.00016 mg [2] | pest or weed control at 0.8 ppm [5] | other results |
| --- | --- | --- | --- | --- | --- | --- | --- | --- | --- |
| O=C(Nc1cccc(C(=O)Nc2c(Br)cc(C(F)(C(F)(F)F)C(F)(F)F)cc2OC(F)(F)F)c1)c1ccc(C(F)(F)F)cc1 [Compound 1] | 90% | 100% | – | – | – | – | – | – | – |
| O=C(Nc1cccc(C(=O)Nc2c(Br)cc(C(F)(C(F)(F)F)C(F)(F)F)cc2OC(F)(F)F)c1)c1ccc(Cl)cc1 [Compound 2] | 90% | 100% | – | – | – | – | – | – | – |
| N#Cc1ccc(C(=O)Nc2cccc(C(=O)Nc3c(Br)cc(C(F)(C(F)(F)F)C(F)(F)F)cc3C(F)(F)F)c2)cc1 [Compound 3] | 90% | 100% | 95% | 95% | 90% | 95% | – | – | pest or weed control at 0.2 µg/cm2, 0.2 µg/cm2 [4]: 90% |
| CN(C(=O)c1ccc(C#N)cc1)c1cccc(C(=O)Nc2c(Br)cc(C(F)(C(F)(F)F)C(F)(F)F)cc2C(F)(F)F)c1 [Compound 4] | 90% | 100% | 95% | 95% | – | – | – | – | – |
| CN(C(=O)c1ccc([N+](=O)[O-])cc1)c1cccc(C(=O)Nc2c(Br)cc(C(F)(C(F)(F)F)C(F)(F)F)cc2C(F)(F)F)c1 [Compound 5] | – | 100% | 95% | 95% | – | 95% | 100% | – | pest or weed control at 1 µg/cm2, 1 µg/cm2 [6]: 90% |
| CN(C(=O)c1ccc(C#N)nc1)c1cccc(C(=O)Nc2c(Br)cc(C(F)(C(F)(F)F)C(F)(F)F)cc2C(F)(F)F)c1 [Compound 6] | – | 100% | 95% | 95% | – | 95% | – | 95% | – |
| CN(C(=O)c1ccc(S(C)(=O)=O)cc1)c1cccc(C(=O)Nc2c(Br)cc(C(F)(C(F)(F)F)C(F)(F)F)cc2C(F)(F)F)c1 [Compound 7] | – | 100% | – | 95% | – | 95% | – | – | – |
| CN(C(=O)c1ccc(C#N)cc1)c1cc(C(=O)Nc2c(Br)cc(C(F)(C(F)(F)F)C(F)(F)F)cc2C(F)(F)F)ccc1F [Compound 8] | – | – | 95% | 95% | – | 95% | – | 95% | – |
| CN(C(=O)c1ccc(C#N)cc1)c1cccc(C(=O)Nc2c(Br)cc(C(F)(C(F)(F)F)C(F)(F)F)cc2OC(F)(F)F)c1 [Compound 10] | – | 100% | 95% | 95% | 90% | 95% | 100% | – | – |
| O=C(Nc1cccc(C(=O)Nc2c(Br)cc(C(F)(C(F)(F)F)C(F)(F)F)cc2OC(F)(F)F)c1)c1ccc([N+](=O)[O-])cc1 [Compound 11] | 90% | 100% | 95% | 95% | 90% | 95% | 100% | 95% | pest or weed control at 0.2 µg/cm2, 0.2 µg/cm2 [1]: 90%; pest or weed control at 0.04 µg/cm2, 0.04 µg/cm2 [4]: 90%; pest or weed control at 0.2 µg/cm2, 0.2 µg/cm2 [4]: 90%; pest or weed control at 0.16 ppm [5]: 95% |
| CN(C(=O)c1ccc(C#N)cc1F)c1cccc(C(=O)Nc2c(Br)cc(C(F)(C(F)(F)F)C(F)(F)F)cc2C(F)(F)F)c1 [Compound 14] | – | 100% | 95% | 95% | 90% | 95% | 100% | 95% | pest or weed control at 0.2 µg/cm2, 0.2 µg/cm2 [4]: 90%; pest or weed control at 0.16 ppm [5]: 95% |
| N#Cc1ccc(C(=O)Nc2cccc(C(=O)Nc3c(Br)cc(C(F)(C(F)(F)F)C(F)(F)F)cc3C(F)(F)F)c2)c(F)c1 [Compound 15] | 90% | 100% | 95% | 95% | 90% | 95% | 100% | – | pest or weed control at 0.2 µg/cm2, 0.2 µg/cm2 [1]: 90%; pest or weed control at 0.2 µg/cm2, 0.2 µg/cm2 [4]: 90% |
| CN(C(=O)c1ccc(C#N)cc1)c1cccc(C(=O)Nc2c(Br)cc(C(F)(C(F)(F)F)C(F)(F)F)cc2C(F)(F)F)c1F [Compound 17] | – | 100% | 95% | 95% | 90% | 95% | 100% | 95% | pest or weed control at 0.04 µg/cm2, 0.04 µg/cm2 ([3]; dose 0.04 μg/cm^2, dead or moribund fleas after 48 h): 95%; pest or weed control at 0.04 µg/cm2, 0.04 µg/cm2 [4]: 90%; pest or weed control at 0.2 µg/cm2, 0.2 µg/cm2 [4]: 90%; pest or weed control at 0.0064 ppm ([5]; dose 0.0064 ppm in citrated cattle blood): 95%; pest or weed control at 0.032 ppm ([5]; dose 0.032 ppm in citrated cattle blood): 95%; pest or weed control at 0.16 ppm [5]: 95%; pest or weed control at 32 ng [2]: 100%; pest or weed control at 0.2 µg/cm2, 0.2 µg/cm2 ([6]; dose 0.2 μg/cm^2, 48 h): 90%; pest or weed control at 1 µg/cm2, 1 µg/cm2 [6]: 90% |
| CN(C(=O)c1ccc(C#N)cc1Cl)c1cccc(C(=O)Nc2c(Br)cc(C(F)(C(F)(F)F)C(F)(F)F)cc2C(F)(F)F)c1 [Compound 18] | – | – | – | – | – | 95% | – | 95% | – |
| CN(C(=O)c1ccc(C#N)cc1)c1cccc(C(=O)Nc2c(I)cc(C(F)(C(F)(F)F)C(F)(F)F)cc2C(F)(F)F)c1 [Compound 20] | – | 100% | 95% | 95% | – | 95% | 100% | 95% | pest or weed control at 32 ng [2]: 100% |
| O=C(Nc1c(I)cc(C(F)(C(F)(F)F)C(F)(F)F)cc1C(F)(F)F)c1cccc(NC(=O)c2ccc(Cl)cc2Cl)c1 [Compound 32] | – | 100% | – | – | – | 95% | – | – | – |
| CS(=O)(=O)c1ccc(C(=O)Nc2cccc(C(=O)Nc3c(I)cc(C(F)(C(F)(F)F)C(F)(F)F)cc3C(F)(F)F)c2)c(Cl)c1 [Compound 40] | – | 100% | – | – | – | 95% | – | 95% | – |
| O=C(Nc1c(I)cc(C(F)(C(F)(F)F)C(F)(F)F)cc1C(F)(F)F)c1cccc(NC(=O)c2ccc(Cl)cc2Br)c1 [Compound 42] | – | 100% | – | – | – | 95% | 100% | 95% | – |
